According to patent US11266686B2, “Metal complexes and methods of treatment” (PROCYPRA THERAPEUTICS LLC, priority 2013, dated 2022):

What was measured:
[1] = Pharmacokinetics in mice after oral administration, plasma and brain by LC/MS/MS; conditions: 30 mg/kg CuXTSM API oral; for Brain AUC0-24h / Brain AUC0-inf / Brain Cmax / Brain Tmax / Brain t½ (number of time points): mouse brain; for Brain t½ (number of time points) / Plasma t½ (number of time points): bracket = number of time points; for Plasma Ke / Plasma MRT / Plasma AUC0-24h / Plasma AUC0-inf / Plasma Cmax / Plasma Tmax / Plasma t½ (number of time points): mouse plasma; for Plasma AUC0-24h / Plasma AUC0-inf / Plasma Cmax / Plasma Tmax: CuATSM in SSV, NCDs in water; for Brain:plasma-ratio (AUC-based) / Brain:plasma-ratio (Cmax-based): mouse
Description: CuATSM was suspended in “Standard Suspension Vehicle” (SSV), consisting of 0.9% (w/v) NaCl, 0.5% (w/v) sodium carboxymethylcellulose, 0.5% (v/v) benzyl alcohol, and 0.4% (v/v) Tween 80 in deionized water. All other test compounds were suspended in sterile water. Samples were prepared by adding one of the compounds to the liquid vehicle (water or SSV) in a vial and then vortexing the mixture for 3 min with a stir bar inside. If the powdered sample was not completely wetted or not completely suspended, the sample was vortexed for another minute. If wetting was still incomplete, the vial was sonicated until a fully wetted suspension was obtained. Between doses, the sample was stirred on medium speed and then vortexed for an additional 20 s immediately before the next dose was removed from the vial. All dosing was completed from a single preparation of the suspension within 60 min of adding the compound to water or SSV.
Mice were deprived of pelleted food overnight, during which time 10% dextrose, as Dextroput, was provided in tap water, after which the test items were administrated orally by gavage in water or SSV. […] The blood samples were kept on ice after sampling and centrifuged at +4° C., 1800×g for 5 min to prepare plasma. Plasma samples were extracted and transferred into pre-labelled Eppendorf test tubes (50 μl exact in one vial, and the remaining in a second vial) and frozen at −20° C. The samples were transported on dry ice to the analysis site. Following blood sampling, mice were euthanized by cervical dislocation, and then brains were collected through opened skulls. The brains were weighed and placed in test tubes and placed on water ice. Phosphate-buffered saline (PBS, pH 7.4), 4 ml per 1 g of brain tissue, was added to the test tube and brains were homogenized by using Ultra-Turrax T25 homogenizer/S25N-10G (Setting 2, 9500 rpm, approximately 10 s). The homogenate was frozen at −20° C. immediately after homogenization. The samples were transported on dry ice to the analysis site.
Dosed mice were studied in triplicate for each of the seven time points, totaling 21 mice dosed for each studied compound. Plasma samples and brain homogenates from four untreated animals were also obtained. The plasma samples were thawed at room temperature (RT), mixed with 2-fold volume of acetonitrile, shaken and centrifuged for 10 min at 13 000×g (Heraeus Pico 17 centrifuge), after which supernatants were transferred into glass vials. The brain homogenate samples were mixed with 2-fold volume of acetonitrile:methanol, shaken, ultrasonicated for 20 min, and centrifuged for 10 min at 13 000×g (Heraeus Pico 17 centrifuge), after which supernatants were transferred into glass vials. […] Quality control (QC) samples were prepared for concentrations 10, 100 and 1000 ng/ml in plasma or brain homogenates.
Elution was with gradient of 0.5% formic acid/acetonitrile (99:1) increased step-wise to (5:95).
The pharmacokinetic parameters for study compounds in plasma and brain were calculated using standard non-compartmental methods. The elimination phase half-life (t½) was calculated by least-squares regression analysis of the terminal linear part of the log concentration-time curve. […] The maximum concentration (Cmax) and the time to Cmax (Tmax) were derived directly from the concentration data. Mean Residence Time, MRT, and elimination rate constant, Ke, were also calculated from the concentration vs. time data of plasma samples.

[2] = Kinetic solubility determination (μDISS Profiler, in situ fiber optic UV); conditions: for dissolved CuATSM as share of the total available in the assay: gluconic acid NCD at the 0.3 hour time point
Description: Solubility assays were performed in 25 mL glass vials. Glass vials (4-mL, capped, VWR) were used to prepare stock solutions. All experiments were conducted using μDISS Profiler™ operated by μDISS Command Software (version 5.0.1.0). MB-8 mini-water bath with built-in stirring device was used to provide stirring during solubility measurements. Temperature during experiments was maintained at 25±2° C., and were performed in duplicate.
An HCl/KCl based buffer at pH 1.2 and a simulated intestinal fluid at pH 6.8 (no pancreatin) were prepared according USP protocols (Vol 35/NF30). […] The concentration measurements are performed directly in the dissolution media, with processed results plotted in real time using the μDISS Profiler™ (Pion) instrument. The Profiler uses an in situ fiber optic-dip probe UV apparatus, with the probe center-positioned in the vial holding the studied compounds and 10-20 mL of media. Interference due to background turbidity was minimized when needed by a spectral second derivative method (Avdeef, A; Tsinman, O. “Miniaturized Rotating Disk Intrinsic Dissolution Rate Measurement: Effects of Buffer Capacity in Comparisons to Traditional Wood's Apparatus”, Pharm. Res., 2008, DOI: 10.1007/s11095-008-96-79-z).
The 2 and 20 mm path length tips were selected for detecting the concentration of CuATSM at pH 1.2 and pH 6.8 respectively. A dry CuATSM powder was dissolved in DMSO resulting a stock solution at known concentration, and then the solution was used to generate standard curves by serial addition. Standard curves were determined from the area under the second derivative curve in wavelength range 340-366 nm (for pH 1.2) and 445-465 nm (for pH 6.8) so as to avoid over saturation of the UV signal.
The solubility of CuATSM was determined in pH 6.8 buffer. Samples of CuATSM were introduced into pH 6.8 buffer as powders, thus, unlike for standards, the final solutions contained no solvents in the background. The 20 mm (at pH 6.8) path length tip was selected for detecting the concentration of CuATSM in solution. All experiments were performed at room temperature 25±3° C.
The 20 mm pathlength tip was selected for detecting the concentration of the compounds in pH 6.8 buffer solution. All experiments were performed at room temperature, 25±3° C., and were performed in duplicate.
Kinetic solubility determination of CuATSM:saccharin (1:2). CuATSM:saccharin (1:2) was prepared according to the methods of EXAMPLE 3. The kinetic solubility profile of CuATSM:saccharin (1:2) was determined in pH 6.8 buffer similarly to the methods given in EXAMPLE 13 and EXAMPLE 14. Standard curves of CuATSM:saccharin (1:2) and saccharin were generated and compared to the standard curves of CuATSM. Saccharin concentrations in the buffer solution were determined from the saccharin standard curves in the 292-310 nm wavelength region, using the Zero Intercept Method so as to minimize spectral interference from CuATSM. […] The upper concentration limit of the assay was approximately 0.12 mg/mL of CuATSM:saccharin (1:2), resulting in upper concentrations limits for CuATSM and for saccharin in solution approximately 60 μg/mL each. All experiments were performed at about 25±3° C., and were performed in duplicate.

[3] = pH 6.8 buffer, powder added, 25±3° C., 12-hour monitoring

Row | Structure (SMILES) | Brain AUC0-24h [1] [ng·min/g] | Brain AUC0-inf [1] [ng·min/g] | Brain Cmax [1] [ng/g] | Brain Tmax [1] [h] | Brain t½ (number of time points) [1] | Plasma Ke [1] [min⁻¹] | Plasma MRT [1] [h] | Plasma AUC0-24h [1] | Plasma AUC0-inf [1] [ng·min/mL] | Plasma Cmax [1] [ng/mL] | Plasma Tmax [1] [h] | Plasma t½ (number of time points) [1] | Brain:plasma-ratio (AUC-based) [1] | Brain:plasma-ratio (Cmax-based) [1] | time to maximum concentration of CuATSM ([2]; pH 6.8 buffer, 25±3° C.) [h] | maximum concentration of CuATSM in solution [2, 3] | dissolved CuATSM as share of the total available in the assay ([2]; pH 6.8 buffer) | other results
1 | CNC1=NN=C(C)C(C)=NN=C(NC)[S][Cu][S]1.O=C1NS(=O)(=O)c2ccccc21.O=C1NS(=O)(=O)c2ccccc21 [CuATSM:saccharin (1:2)] | 30643 | 30979 | 71.8 | 0.25 | 202 (2) min | 0.0040 | 6.25 | 20 333 min*ng/mL | 20436 | 29.0 | 2 | 170 (2) min | 1.5 | 2.5 | ≤ 0.8 | approximately 2 μg/mL | less than 1% | time to maximum concentration of saccharin ([2]; pH 6.8 buffer): ≤ 0.3 h; concentration of CuATSM at the end of the 12-hour monitoring period ([2]; pH 6.8 buffer, 25±3° C.): approximately 1 μg/mL; maximum concentration of saccharin in solution ([2]; pH 6.8 buffer, unchanged over the 12-hour monitoring period): approximately 60 μg/mL
2 | CNC1=NN=C(C)C(C)=NN=C(NC)[S][Cu][S]1 [CuATSM, Copper(II) diacetyl-di(N4-methyl)thiosemicarbazone, reference compound] | 10944 | 13843 | 28.4 | 1 | 199 (3) min | 0.0035 | 5.25 | 9637 ng·min/mL | 9698 | 22.2 | 2 | 196 (4) min | 1.1 | 1.3 | – | – | – | concentration of CuATSM at the end of the 12-hour monitoring period ([2]; pH 6.8): remained at that concentration; time to maximum concentration of CuATSM ([2]; pH 6.8): approximately 8 hours
3 | CNC1=NN=C(C)C(C)=NN=C(NC)[S][Cu][S]1.O=C(O)C(O)C(O)C(O)C(O)CO.O=C(O)C(O)C(O)C(O)C(O)CO [CuATSM:gluconic acid (1:2)] | 71554 | 73544 | 133 | 4 | 261 (3) min | 0.0028 | 5.95 | 25 163 min*ng/mL | 25696 | 36.5 | 4 | 252 (3) min | 2.8 | 3.6 | ≤ 0.11 | approximately 3 μg/mL | less than 1% | solubility in DMSO (did not fully dissolve at) ([2]; DMSO stock solution): < 400 µg/mL; time to maximum concentration of CuATSM ([2]; pH 1.2 KCl/HCl buffer): ≤ 0.3 h; maximum concentration of CuATSM in solution ([2]; pH 1.2 KCl/HCl buffer, 3-hour monitoring): approximately 195 μg/mL; dissolved CuATSM as share of the total amount of CuATSM in the sample ([2]; pH 1.2 buffer, within 0.3 hours, kept for 3 hours): 33%; change in the chemical identity of CuATSM after dissolution (UV spectral shifts) ([2]; pH 6.8 buffer, 450 nm shifted to 415 nm within the first 0.3 hours): reaction or decomposition
